Earlier results, collected in PubChem BioAssay AID1259409 (Chemical Carcinogenesis Research Information System (CCRIS), 2018).

System: rodent chemically induced tumor inhibition, incidence and multiplicity
Assay: CCRIS tumor inhibitor studies
Settings: Carcinogen: 7,12-DIMETHYLBENZ[A]ANTHRACENE, 57-97-6, Dose [Inhibitor]: 0, Species: MOUSE, Strain/Sex: SENCAR/FEMALE, Target Tissue: Type of Lesion: INTEGUMENTARY SYSTEM: SKIN PAPILLOMA, Dose [Carcinogen]: 10 NMOL IN 0.2 ML ACETONE ONCE, Promoter: 12-O-TETRADECANOYLPHORBOL-13-ACETATE, 16561-29-8

COc1c2ccoc2c(OC)c2oc(=O)ccc12
tumour outcome (control, treated, inhibition, significance) (30 MG/KG BW TWICE AT 24 HR AND 2 HR PRIOR TO CARCINOGEN DOSE (STUDY DURATION: 18 WK), Route [Inhibitor]: GAVAGE): 30/30 (100%), 29/30 (97%), 3%, not significant
tumour outcome (control, treated, inhibition, significance) (70 MG/KG BW TWICE AT 24 HR AND 2 HR PRIOR TO CARCINOGEN DOSE (STUDY DURATION: 18 WK), Route [Inhibitor]: GAVAGE): 30/30 (100%), 26/30 (86%), 14%, not significant
tumour outcome (control, treated, inhibition, significance) (150 MG/KG BW TWICE AT 24 HR AND 2 HR PRIOR TO CARCINOGEN DOSE (STUDY DURATION: 18 WK), Route [Inhibitor]: GAVAGE): 30/30 (100%), 23/30 (78%), 22%, p< 0.006
tumour outcome (control, treated, inhibition, significance) (400 NMOL IN 0.2 ML ACETONE ONCE 5 MIN PRIOR TO CARCINOGEN DOSE (STUDY DURATION: 18 WK), Route [Inhibitor]: DERMAL): 30/30 (100%), 28/30 (93%), 7%, not significant
tumour outcome (control, treated, inhibition, significance) (800 NMOL IN 0.2 ML ACETONE ONCE 5 MIN PRIOR TO CARCINOGEN DOSE (STUDY DURATION: 18 WK), Route [Inhibitor]: DERMAL): 30/30 (100%), 27/30 (90%), 10%, not significant
tumour outcome (control, treated, inhibition, significance) (1600 NMOL IN 0.2 ML ACETONE ONCE 5 MIN PRIOR TO CARCINOGEN DOSE (STUDY DURATION: 18 WK), Route [Inhibitor]: DERMAL): 30/30 (100%), 23/30 (77%), 23%, p< 0.002
tumour outcome (control, treated, inhibition, significance) (3200 NMOL IN 0.2 ML ACETONE ONCE 5 MIN PRIOR TO CARCINOGEN DOSE (STUDY DURATION: 18 WK), Route [Inhibitor]: DERMAL): 30/30 (100%), 27/30 (89%), 11%, not significant
